PubChem BioAssay (NCI)
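Exposure lasted 48 hours, with cells grown in 96-well plates and compounds tested at five concentrations. At the TGI there is no net growth.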

Legend:
Test in all cases: NCI-60 cell line screen, 48 h
SF-295 CNS = test system: SF-295 CNS
OVCAR-4 ovarian = test system: OVCAR-4 ovarian
MDA-MB-231 breast = test system: MDA-MB-231 breast
SK-MEL-5 melanoma = test system: SK-MEL-5 melanoma
HCT-15 colon = test system: HCT-15 colon
TK-10 renal = test system: TK-10 renal
RXF 393 renal = test system: RXF 393 renal
NCI-H226 lung = test system: NCI-H226 lung
SN12C renal = test system: SN12C renal
HCC-2998 colon = test system: HCC-2998 colon
CAKI-1 renal = test system: CAKI-1 renal
HS 578T breast = test system: HS 578T breast
T-47D breast = test system: T-47D breast
PC-3 prostate = test system: PC-3 prostate
SF-539 CNS = test system: SF-539 CNS
EKVX NSCLC = test system: EKVX NSCLC
UACC-257 melanoma = test system: UACC-257 melanoma
U251 CNS = test system: U251 CNS
UO-31 renal = test system: UO-31 renal
NCI/ADR-RES ovarian = test system: NCI/ADR-RES ovarian
OVCAR-3 ovarian = test system: OVCAR-3 ovarian
HOP-92 NSCLC = test system: HOP-92 NSCLC
SK-OV-3 ovarian = test system: SK-OV-3 ovarian
CCRF-CEM leukemia = test system: CCRF-CEM leukemia
OVCAR-5 ovarian = test system: OVCAR-5 ovarian
MCF7 breast = test system: MCF7 breast
HCT-116 colon = test system: HCT-116 colon
SK-MEL-2 melanoma = test system: SK-MEL-2 melanoma
SW-620 colon = test system: SW-620 colon
SNB-19 CNS = test system: SNB-19 CNS
KM12 colon = test system: KM12 colon
A498 renal = test system: A498 renal
DU-145 prostate = test system: DU-145 prostate
ACHN renal = test system: ACHN renal
MDA-MB-435 = test system: MDA-MB-435
K-562 leukemia = test system: K-562 leukemia
A549 NSCLC = test system: A549 NSCLC
M14 melanoma = test system: M14 melanoma
MDA-N = test system: MDA-N
UACC-62 melanoma = test system: UACC-62 melanoma
786-0 renal = test system: 786-0 renal
SK-MEL-28 melanoma = test system: SK-MEL-28 melanoma
SNB-75 CNS = test system: SNB-75 CNS
SF-268 CNS = test system: SF-268 CNS
LOX IMVI melanoma = test system: LOX IMVI melanoma
HOP-62 NSCLC = test system: HOP-62 NSCLC
RPMI-8226 leukemia = test system: RPMI-8226 leukemia
MOLT-4 leukemia = test system: MOLT-4 leukemia
MALME-3M melanoma = test system: MALME-3M melanoma
COLO 205 colon = test system: COLO 205 colon
HL-60(TB) leukemia = test system: HL-60(TB) leukemia
NCI-H460 lung = test system: NCI-H460 lung
OVCAR-8 ovarian = test system: OVCAR-8 ovarian
NCI-H23 lung = test system: NCI-H23 lung
SR leukemia = test system: SR leukemia
HT29 colon = test system: HT29 colon
IGROV1 ovarian = test system: IGROV1 ovarian
NCI-H522 lung = test system: NCI-H522 lung

SMILES: CC1(C)[C@@H](Cn2nnc3c(N)ncnc32)CC[C@@]1(C)CO
- TGI (SF-295 CNS): > 100 µM
- TGI (OVCAR-4 ovarian): > 100 µM
- TGI (MDA-MB-231 breast): > 100 µM
- TGI (SK-MEL-5 melanoma): > 100 µM
- TGI (HCT-15 colon): > 100 µM
- TGI (TK-10 renal): > 100 µM
- TGI (RXF 393 renal): > 100 µM
- TGI (NCI-H226 lung): > 100 µM
- TGI (SN12C renal): > 100 µM
- TGI (HCC-2998 colon): 29 µM
- TGI (CAKI-1 renal): > 100 µM
- TGI (HS 578T breast): > 100 µM
- TGI (T-47D breast): > 100 µM
- TGI (PC-3 prostate): > 100 µM
- TGI (SF-539 CNS): > 100 µM
- TGI (EKVX NSCLC): > 100 µM
- TGI (UACC-257 melanoma): > 100 µM
- TGI (U251 CNS): > 100 µM
- TGI (UO-31 renal): > 100 µM
- TGI (NCI/ADR-RES ovarian): > 100 µM
- TGI (OVCAR-3 ovarian): > 100 µM
- TGI (HOP-92 NSCLC): > 100 µM
- TGI (SK-OV-3 ovarian): > 100 µM
- TGI (CCRF-CEM leukemia): > 100 µM
- TGI (OVCAR-5 ovarian): > 100 µM
- TGI (MCF7 breast): > 100 µM
- TGI (HCT-116 colon): > 100 µM
- TGI (SK-MEL-2 melanoma): > 100 µM
- TGI (SW-620 colon): > 100 µM
- TGI (SNB-19 CNS): > 100 µM
- TGI (KM12 colon): > 100 µM
- TGI (A498 renal): > 100 µM
- TGI (DU-145 prostate): > 100 µM
- TGI (ACHN renal): > 100 µM
- TGI (MDA-MB-435): > 100 µM
- TGI (K-562 leukemia): > 100 µM
- TGI (A549 NSCLC): > 100 µM
- TGI (M14 melanoma): > 100 µM
- TGI (MDA-N): > 100 µM
- TGI (UACC-62 melanoma): > 100 µM
- TGI (786-0 renal): > 100 µM
- TGI (SK-MEL-28 melanoma): > 100 µM
- TGI (SNB-75 CNS): > 100 µM
- TGI (SF-268 CNS): > 100 µM
- TGI (LOX IMVI melanoma): > 100 µM
- TGI (HOP-62 NSCLC): > 100 µM
- TGI (RPMI-8226 leukemia): > 100 µM

SMILES: CC1CN=C(N(C)C(=O)Nc2ccc(Cl)cc2)S1 (stereo unspecified)
- TGI (SF-295 CNS): > 100 µM
- TGI (MOLT-4 leukemia): 44.1 µM
- TGI (OVCAR-4 ovarian): > 100 µM
- TGI (MDA-MB-231 breast): > 100 µM
- TGI (SK-MEL-5 melanoma): 22 µM
- TGI (HCT-15 colon): > 100 µM
- TGI (TK-10 renal): > 100 µM
- TGI (MALME-3M melanoma): > 100 µM
- TGI (SN12C renal): > 100 µM
- TGI (HCC-2998 colon): > 100 µM
- TGI (CAKI-1 renal): > 100 µM
- TGI (HS 578T breast): > 100 µM
- TGI (T-47D breast): 65.6 µM
- TGI (PC-3 prostate): > 100 µM
- TGI (SF-539 CNS): 30.8 µM
- TGI (EKVX NSCLC): > 100 µM
- TGI (UACC-257 melanoma): 35.5 µM
- TGI (COLO 205 colon): 80.2 µM
- TGI (U251 CNS): > 100 µM
- TGI (HL-60(TB) leukemia): > 100 µM
- TGI (UO-31 renal): 61 µM
- TGI (NCI-H460 lung): > 100 µM
- TGI (NCI/ADR-RES ovarian): 37.5 µM
- TGI (OVCAR-8 ovarian): > 100 µM
- TGI (OVCAR-3 ovarian): > 100 µM
- TGI (HOP-92 NSCLC): 68.8 µM
- TGI (SK-OV-3 ovarian): > 100 µM
- TGI (OVCAR-5 ovarian): 66.4 µM
- TGI (NCI-H23 lung): > 100 µM
- TGI (MCF7 breast): > 100 µM
- TGI (HCT-116 colon): > 100 µM
- TGI (SK-MEL-2 melanoma): 37.3 µM
- TGI (SW-620 colon): > 100 µM
- TGI (SNB-19 CNS): > 100 µM
- TGI (KM12 colon): > 100 µM
- TGI (A498 renal): > 100 µM
- TGI (SR leukemia): 92.2 µM
- TGI (DU-145 prostate): > 100 µM
- TGI (ACHN renal): 95.6 µM
- TGI (K-562 leukemia): > 100 µM
- TGI (A549 NSCLC): > 100 µM
- TGI (M14 melanoma): > 100 µM
- TGI (MDA-N): > 100 µM
- TGI (786-0 renal): > 100 µM
- TGI (SK-MEL-28 melanoma): 41.8 µM
- TGI (SNB-75 CNS): > 100 µM
- TGI (SF-268 CNS): > 100 µM
- TGI (LOX IMVI melanoma): > 100 µM
- TGI (HOP-62 NSCLC): > 100 µM
- TGI (HT29 colon): > 100 µM
- TGI (IGROV1 ovarian): > 100 µM

SMILES: CC1=C(C#N)C2C(=C(C)N1)C(N)=Nc1ccccc12 (stereo unspecified)
- TGI (SF-295 CNS): > 100 µM
- TGI (MOLT-4 leukemia): > 100 µM
- TGI (OVCAR-4 ovarian): > 100 µM
- TGI (MDA-MB-231 breast): > 100 µM
- TGI (SK-MEL-5 melanoma): > 100 µM
- TGI (HCT-15 colon): > 100 µM
- TGI (TK-10 renal): > 100 µM
- TGI (RXF 393 renal): > 100 µM
- TGI (NCI-H226 lung): 93.8 µM
- TGI (MALME-3M melanoma): > 100 µM
- TGI (SN12C renal): > 100 µM
- TGI (HCC-2998 colon): > 100 µM
- TGI (NCI-H522 lung): > 100 µM
- TGI (CAKI-1 renal): > 100 µM
- TGI (HS 578T breast): 74.7 µM
- TGI (T-47D breast): > 100 µM
- TGI (PC-3 prostate): 70.8 µM
- TGI (SF-539 CNS): > 100 µM
- TGI (EKVX NSCLC): 89.4 µM
- TGI (UACC-257 melanoma): > 100 µM
- TGI (COLO 205 colon): > 100 µM
- TGI (HL-60(TB) leukemia): 81.6 µM
- TGI (NCI-H460 lung): > 100 µM
- TGI (NCI/ADR-RES ovarian): > 100 µM
- TGI (OVCAR-8 ovarian): > 100 µM
- TGI (OVCAR-3 ovarian): > 100 µM
- TGI (HOP-92 NSCLC): 62.2 µM
- TGI (SK-OV-3 ovarian): > 100 µM
- TGI (CCRF-CEM leukemia): > 100 µM
- TGI (OVCAR-5 ovarian): > 100 µM
- TGI (NCI-H23 lung): > 100 µM
- TGI (MCF7 breast): > 100 µM
- TGI (HCT-116 colon): > 100 µM
- TGI (SK-MEL-2 melanoma): > 100 µM
- TGI (SW-620 colon): > 100 µM
- TGI (SNB-19 CNS): > 100 µM
- TGI (KM12 colon): > 100 µM
- TGI (A498 renal): 97.8 µM
- TGI (SR leukemia): > 100 µM
- TGI (DU-145 prostate): > 100 µM
- TGI (ACHN renal): > 100 µM
- TGI (A549 NSCLC): > 100 µM
- TGI (M14 melanoma): > 100 µM
- TGI (MDA-N): > 100 µM
- TGI (UACC-62 melanoma): > 100 µM
- TGI (786-0 renal): > 100 µM
- TGI (SK-MEL-28 melanoma): > 100 µM
- TGI (SNB-75 CNS): 44.1 µM
- TGI (SF-268 CNS): > 100 µM
- TGI (LOX IMVI melanoma): > 100 µM
- TGI (HOP-62 NSCLC): > 100 µM
- TGI (HT29 colon): > 100 µM
- TGI (IGROV1 ovarian): 95.6 µM
